Where a name gives a salt, the structure may show the parent alone.

In turn, `CC(=O)N1CCN(Cc2cnc(-c3ccc(C(CC4CCOCC4)c4ccc(S(=O)(=O)C5CC5)cc4)[nH]3)s2)CC1.Cl` (centres unmarked) yielded a melting point of 156 to 158 °C.
With `Cl.O=C1CCN(Cc2cnc(-c3ccc(C(CC4CCOCC4)c4ccc(S(=O)(=O)C5CC5)cc4)[nH]3)s2)CC1` (centres unmarked), the melting point was in the range of 146 to 148 °C.
The value for `O=C(O)CCc1cnc(-c2ccc(C(CC3CCOCC3)c3ccc(S(=O)(=O)C4CC4)cc3)[nH]2)s1` (centres unmarked) (as salt: calcium) [Example 163, 3-[2-(5-{1-[4-(cyclopropylsulfonyl)phenyl]-2-(tetrahydro-2H-pyran-4-yl)ethyl}-1H-pyrrol-2-yl)-1,3-thiazol-5-yl]propanoic acid 1/2 calcium salt] was > 194 °C (dec.).
Compound `CC(c1cnc(-c2ccc(C(CC3CCOCC3)c3ccc(S(=O)(=O)C4CC4)cc3)[nH]2)s1)N(C)C` (centres unmarked) (as salt: hydrochloride) [Example 157, 1-[2-(5-{1-[4-(cyclopropylsulfonyl)phenyl]-2-(tetrahydro-2H-pyran-4-yl)ethyl}-1H-pyrrol-2-yl)-1,3-thiazol-5-yl]-N,N-dimethylethanamine dihydrochloride] registered a melting point of 147 to 148 °C.
The value for `O=C1CC[C@H](CC(c2ccc(S(=O)(=O)C3CC3)cc2)c2ccc(-c3nccs3)[nH]2)C1` (stereo partly drawn) [Example 102, (3R)-3-{2-[4-(cyclopropylsulfonyl)phenyl]-2-[5-(1,3-thiazol-2-yl)-1H-pyrrol-2-yl]ethyl}cyclopentanone] was 165 to 167 °C.
The value for `CCOC(=O)c1cc(-c2nccs2)[nH]c1C(CC1CCOCC1)c1ccc(S(=O)(=O)C2CC2)cc1` (centres unmarked) [Example 103, Ethyl 2-{1-[4-(cyclopropylsulfonyl)phenyl]-2-(tetrahydro-2H-pyran-4-yl)ethyl}-5-(1,3-thiazol-2-yl)-1H-pyrrole-3-carboxylate] was 178 to 179 °C.
Consider `O=C(O)c1cc(-c2nccs2)[nH]c1C(CC1CCOCC1)c1ccc(S(=O)(=O)C2CC2)cc1` (centres unmarked) [Example 104, 2-{1-[4-(cyclopropylsulfonyl)phenyl]-2-(tetrahydro-2H-pyran-4-yl)ethyl}-5-(1,3-thiazol-2-yl)-1H-pyrrole-3-carboxylic acid], for which the melting point lay within 153 to 155 °C.
In turn, `CN(C)C(=O)c1cc(-c2nccs2)[nH]c1C(CC1CCOCC1)c1ccc(S(=O)(=O)C2CC2)cc1` (centres unmarked) [Example 105, 2-{1-[4-(cyclopropylsulfonyl)phenyl]-2-(tetrahydro-2H-pyran-4-yl)ethyl}-N,N-dimethyl-5-(1,3-thiazol-2-yl)-1H-pyrrole-3-carboxamide] yielded a melting point of 180 to 182 °C.
In turn, `NC(=O)c1cc(-c2nccs2)[nH]c1C(CC1CCOCC1)c1ccc(S(=O)(=O)C2CC2)cc1` (centres unmarked) [Example 106, 2-{1-[4-(cyclopropylsulfonyl)phenyl]-2-(tetrahydro-2H-pyran-4-yl)ethyl}-5-(1,3-thiazol-2-yl)-1H-pyrrole-3-carboxamide] displayed a melting point of 241 to 243 °C.
The value for `N#Cc1cc(-c2nccs2)[nH]c1C(CC1CCOCC1)c1ccc(S(=O)(=O)C2CC2)cc1` (centres unmarked) [Example 107, 2-{1-[4-(cyclopropylsulfonyl)phenyl]-2-(tetrahydro-2H-pyran-4-yl)ethyl}-5-(1,3-thiazol-2-yl)-1H-pyrrole-3-carbonitrile] was 114 to 116 °C; that for `CC(C)(O)COc1ccc(-c2ccc(C(CC3CCOCC3)c3ccc(S(=O)(=O)C4CC4)cc3)[nH]2)nc1` (centres unmarked) [Example 116, 1-{[6-(5-{1-[4-(cyclopropylsulfonyl)phenyl]-2-(tetrahydro-2H-pyran-4-yl)ethyl}-1H-pyrrol-2-yl)pyridin-3-yl]oxy}-2-methylpropan-2-ol] was 110 to 112 °C; that for `CC(O)COc1ccc(-c2ccc(C(CC3CCOCC3)c3ccc(S(=O)(=O)C4CC4)cc3)[nH]2)nc1` (centres unmarked) [Example 117, 1-{[6-(5-{1-[4-(cyclopropylsulfonyl)phenyl]-2-(tetrahydro-2H-pyran-4-yl)ethyl}-1H-pyrrol-2-yl)pyridin-3-yl]oxy}propan-2-ol] was 116 to 118 °C.
With `COC(=O)c1ccc(-c2ccc(C(CC3CCOCC3)c3ccc(S(=O)(=O)C4CC4)cc3)[nH]2)nc1` (centres unmarked) [Example 118, Methyl 6-(5-{1-[4-(cyclopropylsulfonyl)phenyl]-2-(tetrahydro-2H-pyran-4-yl)ethyl}-1H-pyrrol-2-yl)pyridine-3-carboxylate], the melting point is 150 to 152 °C.
The value for `O=C(NC1CC1)c1ccc(-c2ccc(C(CC3CCOCC3)c3ccc(S(=O)(=O)C4CC4)cc3)[nH]2)nc1` (centres unmarked) [Example 119, N-cyclopropyl-6-(5-{1-[4-(cyclopropylsulfonyl)phenyl]-2-(tetrahydro-2H-pyran-4-yl)ethyl}-1H-pyrrol-2-yl)pyridine-3-carboxamide] was 134 to 136 °C; that for `O=C(c1ccc(-c2ccc(C(CC3CCOCC3)c3ccc(S(=O)(=O)C4CC4)cc3)[nH]2)nc1)N1CCC1` (centres unmarked) [Example 120] was 109 to 110 °C.
With `O=C(c1ccc(-c2ccc(C(CC3CCOCC3)c3ccc(S(=O)(=O)C4CC4)cc3)[nH]2)nc1)N1CCOCC1` (centres unmarked) [Example 121, 5-(morpholin-4-ylcarbonyl)-2-(5-[1-[4-(cyclopropylsulfonyl)phenyl]-2-(tetrahydro-2H-pyran-4-yl)ethyl]-1H-pyrrol-2-yl)pyridine], the melting point was in the range of 114 to 116 °C.
The value for `CCOCCNC(=O)c1ccc(-c2ccc(C(CC3CCOCC3)c3ccc(S(=O)(=O)C4CC4)cc3)[nH]2)nc1` (centres unmarked) [Example 122, 6-(5-{1-[4-(cyclopropylsulfonyl)phenyl]-2-(tetrahydro-2H-pyran-4-yl)ethyl}-1H-pyrrol-2-yl)-N-(2-ethoxyethyl)pyridine-3-carboxamide] was 87 to 90 °C; that for `CC(C)(O)CNC(=O)c1ccc(-c2ccc(C(CC3CCOCC3)c3ccc(S(=O)(=O)C4CC4)cc3)[nH]2)nc1` (centres unmarked) [Example 123, 6-(5-[1-[4-(cyclopropylsulfonyl)phenyl]-2-(tetrahydro-2H-pyran-4-yl)ethyl]-1H-pyrrol-2-yl)-N-(2-hydroxy-2-methylpropyl)pyridine-3-carboxamide] was 126 to 128 °C.
The value for `NC(=O)c1ccc(-c2ccc(C(CC3CCOCC3)c3ccc(S(=O)(=O)C4CC4)cc3)[nH]2)nc1` (centres unmarked) [Example 124, 6-(5-{1-[4-(cyclopropylsulfonyl)phenyl]-2-(tetrahydro-2H-pyran-4-yl)ethyl}-1H-pyrrol-2-yl)pyridine-3-carboxamide] was 136 to 138 °C; that for `CC(C)(O)c1ccc(-c2ccc(C(CC3CCOCC3)c3ccc(S(=O)(=O)C4CC4)cc3)[nH]2)nc1` (centres unmarked) [Example 125, 2-[6-(5-{1-[4-(cyclopropylsulfonyl)phenyl]-2-(tetrahydro-2H-pyran-4-yl)ethyl}-1H-pyrrol-2-yl)pyridin-3-yl]propan-2-ol] was 112 to 114 °C; that for `CC(C)=Cc1ccc(-c2ccc(C(CC3CCOCC3)c3ccc(S(=O)(=O)C4CC4)cc3)[nH]2)nc1` (centres unmarked) [Example 126, 2-(5-{1-[4-(cyclopropylsulfonyl)phenyl]-2-(tetrahydro-2H-pyran-4-yl)ethyl}-1H-pyrrol-2-yl)-5-(2-methylprop-1-en-1-yl)pyridine] was 114 to 116 °C.
The value for `N#CCc1ccc(-c2ccc(C(CC3CCOCC3)c3ccc(S(=O)(=O)C4CC4)cc3)[nH]2)nc1` (centres unmarked) [Example 128, [6-(5-{1-[4-(cyclopropylsulfonyl)phenyl]-2-(tetrahydro-2H-pyran-4-yl)ethyl}-1H-pyrrol-2-yl)pyridin-3-yl]acetonitrile] was 139 to 141 °C; that for `O=C(O)Cc1ccc(-c2ccc(C(CC3CCOCC3)c3ccc(S(=O)(=O)C4CC4)cc3)[nH]2)nc1` (centres unmarked) [Example 129, [6-(5-{1-[4-(cyclopropylsulfonyl)phenyl]-2-(tetrahydro-2H-pyran-4-yl)ethyl}-1H-pyrrol-2-yl)pyridin-3-yl]acetic acid] was 124 to 127 °C.
Turning to `O=C(Cc1ccc(-c2ccc(C(CC3CCOCC3)c3ccc(S(=O)(=O)C4CC4)cc3)[nH]2)nc1)N1CCOCC1` (centres unmarked) [Example 130, 4-{[6-(5-{1-[4-(cyclopropylsulfonyl)phenyl]-2-(tetrahydro-2H-pyran-4-yl)ethyl}-1H-pyrrol-2-yl)pyridin-3-yl]acetyl}morpholine], the melting point lay in the range of 202 to 203 °C.
Compound `O=C(Cc1ccc(-c2ccc(C(CC3CCOCC3)c3ccc(S(=O)(=O)C4CC4)cc3)[nH]2)nc1)N1CCC1` (centres unmarked) [Example 131, 5-(2-(azetidin-1-yl)-2-oxoethyl)-2-(5-{1-[4-(cyclopropylsulfonyl)phenyl]-2-(tetrahydro-2H-pyran-4-yl)ethyl}-1H-pyrrol-2-yl)pyridine] came in with a melting point of 94 to 98 °C.
With `NC(=O)Cc1ccc(-c2ccc(C(CC3CCOCC3)c3ccc(S(=O)(=O)C4CC4)cc3)[nH]2)nc1` (centres unmarked) [Example 132, 2-[6-(5-{1-[4-(cyclopropylsulfonyl)phenyl]-2-(tetrahydro-2H-pyran-4-yl)ethyl}-1H-pyrrol-2-yl)pyridin-3-yl]acetamide] the figure was 151 to 153 °C; with `CC(C)(O)C(O)c1ccc(-c2ccc(C(CC3CCOCC3)c3ccc(S(C)(=O)=O)c(Cl)c3)[nH]2)nc1` (centres unmarked) [Example 133, 1-[6-(5-{1-[3-chloro-4-(methylsulfonyl)phenyl]-2-(tetrahydro-2H-pyran-4-yl)ethyl}-1H-pyrrol-2-yl)pyridin-3-yl]-2-methylpropane-1,2-diol], 138 to 140 °C; with `CS(=O)(=O)c1ccc(C(CC2CCOCC2)c2ccc(-c3ccccn3)[nH]2)cn1` (centres unmarked) [Example 137, 2-(methylsulfonyl)-5-[1-(5-(pyridin-2-yl)-1H-pyrrol-2-yl)-2-(tetrahydro-2H-pyran-4-yl)ethyl]pyridine], 89 to 90 °C.
The value for `O=C1CN(Cc2cnc(-c3ccc(C(CC4CCOCC4)c4ccc(S(=O)(=O)C5CC5)cc4)[nH]3)s2)C(=O)N1` (centres unmarked) [Example 147, 1-{[2-(5-{1-[4-(cyclopropylsulfonyl)phenyl]-2-(tetrahydro-2H-pyran-4-yl)ethyl}-1H-pyrrol-2-yl)-1,3-thiazol-5-yl]methyl}imidazolidine-2,4-dione] was 184 to 185 °C.

These data come from patent publication US8318746B2, “Nitrogen-containing five-membered heterocyclic compound” (Takeda Pharmaceutical Company Limited, priority 2007, dated 2012).
